These results are taken from patent US8367708B2, “Phenyl-isoxazol-3-ol derivative” (MSD K.K., priority 2006, dated 2013).

This experiment concerns the target T1, human GPR120 (Homo sapiens, UniProt Q5NUL3).
T1 construct: expressed in transfected cells
T1 sequence (Q5NUL3 1-361): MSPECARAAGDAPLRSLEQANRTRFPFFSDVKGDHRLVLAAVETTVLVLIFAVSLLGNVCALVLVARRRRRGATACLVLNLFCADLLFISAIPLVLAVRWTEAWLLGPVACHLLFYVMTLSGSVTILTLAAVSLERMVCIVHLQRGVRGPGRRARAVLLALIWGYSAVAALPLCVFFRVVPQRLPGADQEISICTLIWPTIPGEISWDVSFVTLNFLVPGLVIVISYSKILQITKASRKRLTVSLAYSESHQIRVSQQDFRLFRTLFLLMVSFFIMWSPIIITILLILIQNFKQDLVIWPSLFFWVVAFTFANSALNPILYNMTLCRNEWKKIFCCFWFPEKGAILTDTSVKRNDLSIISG
The experiment is described as follows: Measurement of intracellular calcium concentration (FLIPR), GPR120 agonist action. The format is cell-based. Particulars: human GPR120 expression CHO cells, Fluo-4 AM, read-out: IC50 (GPR120 agonist action). On the technique in general: Calcium assays in cells follow changes in intracellular calcium, usually with a dye or a luminescent sensor.
With `Oc1cc(-c2ccc(OCCc3cccc(Oc4ccccc4)c3)cc2)on1` [Example 38], the EC50 came out at 250 nM.
Turning to `CC(C)Sc1ncccc1COc1ccc(-c2cc(O)no2)cc1` [Example 15, 5-(4-((2-(isopropylthio)pyridin-3-yl)methoxy)phenyl)isoxazol-3-ol], the EC50 was determined as 70 nM.
As to `Oc1cc(-c2cc(F)c(OCc3ccccc3Oc3ccccc3)c(F)c2)on1` [Example 26, 5-(3,5-difluoro-4-((2-phenoxybenzyl)oxy)phenyl)isoxazol-3-ol], the EC50 was determined as 300 nM.
`Oc1cc(-c2ccc(COc3cccc(Oc4ccccc4)c3)cc2)on1` [Example 45, 5-(4-((3-phenoxyphenoxy)methyl)phenyl)isoxazol-3-ol]: the EC50 worked out at 170 nM.
As to `Oc1cc(-c2ccc(OCc3ccccc3Oc3ccccc3)nc2)on1` [Example 9, 5-(6-((2-phenoxybenzyl)oxy)pyridin-3-yl)isoxazol-3-ol], the EC50 is 180 nM.
`Oc1cc(-c2ccc(OCc3cccc(Oc4ccccc4)n3)cc2)on1` [Example 3, 5-(4-((6-phenoxypyridin-2-yl)methoxy)phenyl)isoxazol-3-ol]: the EC50 came to 180 nM.
For `Cc1oc(-c2ccccc2)nc1CCOc1ccc(-c2cc(O)no2)cc1` [Example 33, 5-(4-(2-(5-methyl-2-phenyl-1,3-oxazol-4-yl)ethoxy)phenyl)isoxazol-3-ol], the EC50 worked out at 620 nM.
`CC(C)Nc1cccc(CCOc2ccc(-c3cc(O)no3)cc2)c1` [Example 41]: the EC50 came out at 150 nM.
Turning to `CCOc1cccc(OCCc2ccc(-c3cc(O)no3)cc2)c1` [Example 36, 5-(4-(2-(3-ethoxyphenoxy)ethyl)phenyl)isoxazol-3-ol], the EC50 was 100 nM.
As for `COCc1cccc(CCOc2ccc(-c3cc(O)no3)cc2)c1` [Example 43, 5-(4-(2-(3-(methoxymethyl)phenyl)ethoxy)phenyl)isoxazol-3-ol], the EC50 worked out at 280 nM.
